US20230111310A1, “CARBOXYLIC ACID DERIVATIVE-SUBSTITUTED IMINO ARYL COMPOUND, PREPARATION METHOD THEREFOR, HERBICIDAL COMPOSITION AND USE THEREOF” (Qingdao Kingagroot Chemical Compound Co., Ltd., priority 2020, published 2023)

How the values were obtained:
Assay in all cases: Weeding effect in post-emergence stage
Format in all cases: in vivo
[1] = tested on: Abutilon theophrasti; conditions: for Weeding effect in post-emergence stage, Abutilon theophrasti: level of fresh weight growth control rate; for Weeding effect in post-emergence stage, Abutilon theophrasti (level): fresh weight control rate level
Summary of the method: (§1)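 Post-emergence spray tower; 2-3 leaf plants (2 wk after sowing, soil pots, greenhouse). Formulation: acetone, Tween 80, methyl oleate EC 1.5 liter/ha as synergist, water. Rates 500–7.5 g/ha. Growth control rate read at 3 wk; n=3, averaged.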

[2] = tested on: Eleusine indica; conditions: for Weeding effect in post-emergence stage, Eleusine indica: level of fresh weight growth control rate; for Weeding effect in post-emergence stage, Eleusine indica (level): fresh weight control rate level
Summary of the method: as §1

[3] = tested on: Setaria viridis; conditions: for Weeding effect in post-emergence stage, Setaria viridis: level of fresh weight growth control rate; for Weeding effect in post-emergence stage, Setaria viridis (level): fresh weight control rate level
Summary of the method: as §1

[4] = tested on: Digitaria sanguinalis; conditions: for Weeding effect in post-emergence stage, Digitaria sanguinalis: level of fresh weight growth control rate; for Weeding effect in post-emergence stage, Digitaria sanguinalis (level): fresh weight control rate level
Summary of the method: as §1

[5] = tested on: Alopecurus japonicus; conditions: for Weeding effect in post-emergence stage, Alopecurus japonicus: level of fresh weight growth control rate; for Weeding effect in post-emergence stage, Alopecurus japonicus (level): fresh weight control rate level
Summary of the method: as §1

[6] = tested on: Echinochloa crusgalli; conditions: for Weeding effect in post-emergence stage, Echinochloa crusgalli: level of fresh weight growth control rate; for Weeding effect in post-emergence stage, Echinochloa crusgalli (level): fresh weight control rate level
Summary of the method: as §1

C/C(=N\OC(=O)C(C)O/N=C/c1cc(-n2c(=O)cc(C(F)(F)F)n(C)c2=O)c(F)cc1Cl)C(C)C (stereo not drawn) [Compound 250]
Weeding effect in post-emergence stage, Abutilon theophrasti ([1]; Dose 15 g/ha): 5 (Level 5: growth control rate is above 85%)
Weeding effect in post-emergence stage, Eleusine indica ([2]; Dose 15 g/ha): 5 (Level 5: growth control rate is above 85%)
Weeding effect in post-emergence stage, Setaria viridis ([3]; Dose 15 g/ha): 5 (Level 5: growth control rate is above 85%)
Weeding effect in post-emergence stage, Digitaria sanguinalis ([4]; Dose 15 g/ha): 5 (Level 5: growth control rate is above 85%)
Weeding effect in post-emergence stage, Alopecurus japonicus ([5]; Dose 15 g/ha): 5 (Level 5: growth control rate is above 85%)
Weeding effect in post-emergence stage, Echinochloa crusgalli ([6]; Dose 15 g/ha): 5 (Level 5: growth control rate is above 85%)

COC(=O)C(OC)(OC)O/N=C/c1cc(-n2c(=O)cc(C(F)(F)F)n(C)c2=O)c(F)cc1Cl [Compound 494]
Weeding effect in post-emergence stage, Abutilon theophrasti (level) ([1]; Dose 15 g/ha): 5 (Level 5: growth control rate is above 85%)
Weeding effect in post-emergence stage, Eleusine indica (level) ([2]; Dose 15 g/ha): 5 (Level 5: growth control rate is above 85%)
Weeding effect in post-emergence stage, Setaria viridis (level) ([3]; Dose 15 g/ha): 5 (Level 5: growth control rate is above 85%)
Weeding effect in post-emergence stage, Digitaria sanguinalis (level) ([4]; Dose 15 g/ha): 5 (Level 5: growth control rate is above 85%)
Weeding effect in post-emergence stage, Alopecurus japonicus (level) ([5]; Dose 15 g/ha): 5 (Level 5: growth control rate is above 85%)
Weeding effect in post-emergence stage, Echinochloa crusgalli (level) ([6]; Dose 15 g/ha): 5 (Level 5: growth control rate is above 85%)

CCOC(=O)C(O/N=C/c1cc(-n2c(=O)n(C)c(=S)n(C)c2=O)c(F)cc1Cl)C1CC1 (stereo not drawn) [Compound 76]
Weeding effect in post-emergence stage, Abutilon theophrasti ([1]; Dose 15 g/ha): 5 (Level 5: growth control rate is above 85%)
Weeding effect in post-emergence stage, Eleusine indica ([2]; Dose 15 g/ha): 5 (Level 5: growth control rate is above 85%)
Weeding effect in post-emergence stage, Setaria viridis ([3]; Dose 15 g/ha): 5 (Level 5: growth control rate is above 85%)
Weeding effect in post-emergence stage, Digitaria sanguinalis ([4]; Dose 15 g/ha): 5 (Level 5: growth control rate is above 85%)
Weeding effect in post-emergence stage, Alopecurus japonicus ([5]; Dose 15 g/ha): 5 (Level 5: growth control rate is above 85%)
Weeding effect in post-emergence stage, Echinochloa crusgalli ([6]; Dose 15 g/ha): 5 (Level 5: growth control rate is above 85%)

CC(O/N=C/c1cc(-n2c(=O)cc(C(F)(F)F)n(C)c2=O)c(F)cc1Cl)C(=O)OCCC1OCCO1 (stereo not drawn) [Compound 498]
Weeding effect in post-emergence stage, Abutilon theophrasti (level) ([1]; Dose 15 g/ha): 5 (Level 5: growth control rate is above 85%)
Weeding effect in post-emergence stage, Eleusine indica (level) ([2]; Dose 15 g/ha): 5 (Level 5: growth control rate is above 85%)
Weeding effect in post-emergence stage, Setaria viridis (level) ([3]; Dose 15 g/ha): 5 (Level 5: growth control rate is above 85%)
Weeding effect in post-emergence stage, Digitaria sanguinalis (level) ([4]; Dose 15 g/ha): 5 (Level 5: growth control rate is above 85%)
Weeding effect in post-emergence stage, Alopecurus japonicus (level) ([5]; Dose 15 g/ha): 5 (Level 5: growth control rate is above 85%)
Weeding effect in post-emergence stage, Echinochloa crusgalli (level) ([6]; Dose 15 g/ha): 5 (Level 5: growth control rate is above 85%)

COC(=O)C(C)O/N=C/c1cc(-n2c(=O)c(C)c(C(F)(F)F)n(C)c2=O)c(F)cc1Cl (racemic) [Compound 473]
Weeding effect in post-emergence stage, Abutilon theophrasti (level) ([1]; Dose 30 g/ha): 5 (Level 5: growth control rate is above 85%)
Weeding effect in post-emergence stage, Eleusine indica (level) ([2]; Dose 30 g/ha): 5 (Level 5: growth control rate is above 85%)
Weeding effect in post-emergence stage, Setaria viridis (level) ([3]; Dose 30 g/ha): 5 (Level 5: growth control rate is above 85%)
Weeding effect in post-emergence stage, Digitaria sanguinalis (level) ([4]; Dose 30 g/ha): 5 (Level 5: growth control rate is above 85%)
Weeding effect in post-emergence stage, Alopecurus japonicus (level) ([5]; Dose 30 g/ha): 5 (Level 5: growth control rate is above 85%)
Weeding effect in post-emergence stage, Echinochloa crusgalli (level) ([6]; Dose 30 g/ha): 5 (Level 5: growth control rate is above 85%)

COC(=O)[C@@H](C)O/N=C/c1cc(-n2c(=O)cc(C(F)(F)F)n(C)c2=O)c(F)cc1C(F)(F)F [342(R)]
Weeding effect in post-emergence stage, Abutilon theophrasti ([1]; Dose 15 g/ha): 5 (Level 5: growth control rate is above 85%)
Weeding effect in post-emergence stage, Eleusine indica ([2]; Dose 15 g/ha): 5 (Level 5: growth control rate is above 85%)
Weeding effect in post-emergence stage, Setaria viridis ([3]; Dose 15 g/ha): 5 (Level 5: growth control rate is above 85%)
Weeding effect in post-emergence stage, Digitaria sanguinalis ([4]; Dose 15 g/ha): 5 (Level 5: growth control rate is above 85%)
Weeding effect in post-emergence stage, Alopecurus japonicus ([5]; Dose 15 g/ha): 5 (Level 5: growth control rate is above 85%)
Weeding effect in post-emergence stage, Echinochloa crusgalli ([6]; Dose 15 g/ha): 5 (Level 5: growth control rate is above 85%)
